Results taken from patent US20050175762A1, “Methods and compositions to inhibit lipid oxidation” (priority 2003, published 2005).

Experiments:
[1] = DPPH radical scavenging by spectrophotometry; assay type: biochemical; conditions: 30 min at 22 to 24° C., 515 nm, concentrations as quercetin equivalent, read-out: SC50 (concentration required to obtain 50% of a maximum scavenging capacity)
Procedure: After a 30 min incubation at 22 to 24° C., the resultant absorbance was recorded at 515 nm by a double-beam spectrophotometer model UV-2401 (Shimadzu Scientific Instruments Inc., Columbia, Md.). Ascorbate, propyl gallate, and quercetin were used as reference standard. The scavenging capacity%=[1-((Abs of cranberry crude extract/fractions-Abs of blank)/Abs control)]*100. […] Plant Sci. 2002, 163, 1161-1168). The cranberry crude extract/fractions were evaluated and compared with ascorbic acid, propyl gallate and quercetin for the free radical scavenging activity toward stable DPPH radicals. […] Specifically, in referring to FIG. 21, the final concentration of DPPH radical was […].

[2] = system: trout hemoglobin-mediated lipid oxidation in washed cod muscle; experiment: Hemoglobin-mediated lipid oxidation in washed cod muscle (TBARS); conditions: for Effect on lipid oxidation in washed cod muscle: hemoglobin-mediated, 2° C. storage, FIG. 22 and 23; for Inhibition in TBARS formation: washed cod muscle
Procedure: Furthermore, cod muscle and trout hemoglobin were prepared according to the method described by Richards et al., Role of deoxyhemoglobin in lipid oxidation of washed cod muscle mediated by trout, poultry and beef hemoglobins. Meat Sci. 2002, 62, 157-163. The hemoglobin-mediated lipid oxidation system consisted of washed cod muscle, cranberry crude extract/fractions, streptomycin sulfate, and trout hemoglobin. The final concentration of hemoglobin and cranberry extract/fractions was 12 and 37/74 μmol per kg washed cod muscle, respectively. A control sample containing no cranberry crude extract/fractions was also prepared. The final moisture content of washed cod muscle was adjusted to 90%. pH was adjusted to between 6.10 and 6.30 by 1 M NaOH or HCl. All samples were stored at 2° C. for 7 to 9 days.
The progress of lipid oxidation in washed cod muscle was followed by periodically removing samples and quantifying TBARS formed by a modified method of Buege and Aust Microsomal lipid peroxidation. Method. Enzymol. 1978, LII, 302-310 as described by Richards et al., Role of deoxyhemoglobin in lipid oxidation of washed cod muscle mediated by trout, poultry and beef hemoglobins. Meat Sci. 2002, 62, 157-163. Lag time (LT) is defined as extension in stability compared to control sample which was stable for around 1 day. All trials in this study were conducted in duplicate or triplicate and in each trial triplicate determinations were performed

[3] = system: salmon oil-in water emulsion; experiment: Lipid oxidation in salmon oil-in water emulsion; conditions: 400 ppm, 10% salmon oil, 0.5% tween 20, pH 3.0, 27° C.
Procedure: Similarly, applicants have tested cranberry fractions in various emulsion systems (FIGS. 7-0). More specifically, FIG. 7, illustrates the effect of quercetin on lipid oxidation in salmon oil-in water emulsion. […] The emulsion consisted of 10% (w/w) salmon oil, 0.5% (w/w) tween 20 and 10 mM pH 3.0 acetate-imidazole buffer. Quercetin was added into the emulsion samples at the level of 400 ppm. The emulsion samples were oxidized in a shaker oven at 27° C. Likewise, FIG. 8, also illustrates the effect of cranberry fractions on lipid oxidation in salmon oil-in water emulsion. However, cranberry fractions and quercetin were added into the emulsion samples at the level of 400 ppm. Also, FIGS. 9 and 10 illustrate the effect of cranberry fractions on lipid oxidation in salmon oil-in water emulsion. However, 10% salmon oil was used in both fraction 4 and control treated samples, whereas 9.2% oil was used in the fraction 2 treated sample.

[4] = system: mechanically separated turkey (MST); experiment: Lipid oxidation (TBARS) in mechanically separated turkey during iced storage

SMILES: O=C1O[C@H]([C@@H](O)CO)C(O)=C1O [ascorbic acid]
- EC50 [1]: 12.2 µM

SMILES: CCCOC(=O)c1cc(O)c(O)c(O)c1 [propyl gallate]
- EC50 [1]: 5.07 µM
- Effect on lipid oxidation in washed cod muscle [2]: stable throughout the entire storage period

SMILES: O=c1c(O)c(-c2ccc(O)c(O)c2)oc2cc(O)cc(O)c12 [quercetin]
- EC50 [1]: 4.89 µM
- Inhibition in TBARS formation ([2]; 37 μmol quercetin per kg): 83%
- Inhibition in TBARS formation ([2]; 74 mmole quercetin equivalent): Up to 94%
- Effect on lipid oxidation in washed cod muscle [2]: as effective as 37 mmole propyl gallate
- Effect on lipid oxidation in emulsion systems [3]: In 2 of 3 trials, quercetin was inhibitory
- Inhibition on lipid oxidation of MST ([4]; 210 umol quercetin/kg MST, 2° C. storage): Effective inhibition
- Inhibition of lipid oxidation in MST ([4]; quercetin at 50 umol/kg, precipitate added on a quercetin equivalent basis (FIG. 5)): highly effective
